Reference: patent US20100261783A1, “CRUCIFEROUS 3H-1,2-DITHIOLE-3-THIONE (D3T) AND METHODS OF PROTECTING AGAINST CELL INJURY” (priority 2009, published 2010)

How the values were obtained:
[1] = system: human neuroblastoma SH-SY5Y cells; assay: Induction of cellular antioxidants and phase 2 enzymes (GSH, NQO1, GCL) in SH-SY5Y cells; format: cell-based
human cardiomyocytes [2] = assay: Protection of human cardiomyocytes from oxidative/electrophilic injury and doxorubicin toxicity; format: cell-based
[3] = system: primary human cardiomyocytes; details: cited from earlier work
[4] = system: human neuroblastoma SH-SY5Y cells; details: D3T-pretreatment of SH-SY5Y cells; cited from earlier work
[5] = system: primary human cardiomyocytes; assay: Induction of antioxidants and phase 2 enzymes in human cardiomyocytes; format: cell-based
human cardiomyocytes [6] = details: cited from earlier work
SH-SY5Y cells [7] = assay: Protection of SH-SY5Y cells against neurotoxicant-elicited cytotoxicity; format: cell-based; details: human neuroblastoma SH-SY5Y cells
SH-SY5Y cells [8] = details: D3T-pretreatment; dopamine, 6-hydroxydopamine, 4-hydroxy-2-nonenal, H2O2; cited from earlier work
human primary astrocytes = assay: Induction of cellular antioxidants and phase 2 enzymes in human primary astrocytes; format: cell-based

## S=c1ccss1 [D3T, 3H-1,2-dithiole-3-thione]
[1]; SH-SY5Y cells
  induction of glutathione (GSH): marked concentration- and time-dependent induction
  protein and mRNA expression of gamma-glutamylcysteine ligase (GCL): increased
[1]; human neuronal cells (neuroblastoma SH-SY5Y cells)
  induction of cellular antioxidants and phase 2 enzymes: capable of inducing
Human cardiomyocytes [2]; doxorubicin
  protection of cardiomyocytes from injury elicited by doxorubicin: potently protected
Human cardiomyocytes [2]; wide range of free radicals and electrophiles
  protection of cardiomyocytes from injury caused by free radicals and electrophiles: nearly complete protection
[3]
  upregulation of antioxidants and phase 2 enzymes: potently upregulated
[4]
  induction of GSH, NQO1, and mitochondrial GSH: induction
[5]; mitochondria of the human cardiomyocytes
  induction of antioxidants in mitochondria: potently induced
[5]; primary human cardiomyocytes, total cellular
  induction of a series of antioxidants: potently induced
Human cardiomyocytes [6]
  resistance to oxidative/electrophilic stress and doxorubicin toxicity: increased resistance
SH-SY5Y cells [7]
  protection against acrolein-induced cytotoxicity: dramatic protection
SH-SY5Y cells [8]
  protection against the cytotoxicity elicited by neurotoxicants: significant protection
Human primary astrocytes
  induction of cellular antioxidants including glutathione (GSH) and phase 2 enzymes: able to induce
